Experimental data reported in patent US6706664B1, “Benzoxazole compounds, process for the preparation thereof and herbicides” (UBE Industries, Ltd., priority 1999, dated 2004).

Assays:
Parameters in all cases: key: 0: normal development; 1: Less damaged; 2: Slightly damaged; 3: Moderately damaged; 4: Severely damaged; 5: All killed
[1] = test system: corn; experiment: Soil treatment test for upland field; format: in vivo; details: 500 g/ha, glass house 25° C., 3 weeks
Excerpt: (§1) (0: normal development, 1: Less damaged, 2: Slightly damaged, 3: Moderately damaged, 4: Severely damaged, 5: All killed).
(§2) Wagner pots, each having an area of 1/5000 are, were packed with Ube soil (alluvial soil), and then each seed of corn, soybean, cotton, wheat, solgum, sugar beat, Large crabgrass, barnyardgrass, green foxtail, blackgrass, annual bluegrass, common lambsquartes, livid amaranth and velvetleaf were planted and covered with soil.
(§3) Each wettable powder of the desired compounds (I) shown in Table 1 prepared in accordance with Example 2 was diluted with water containing a surfactant (0.05%) and uniformly sprayed on the surface of each soil so that an effective concentration of the compound (I) in each herbicide became 500 g/ha. These plants were controlled in a glass house at an average temperature of 25° C. for 3 weeks, and then herbicidal effects thereof were investigated.
(§4) The herbicidal effects were evaluated according to the evaluation method described in the above (1).

[2] = test system: cotton; experiment: Soil treatment test for upland field; format: in vivo; details: 500 g/ha, glass house 25° C., 3 weeks
Excerpt: as §1, §2, §3, §4

[3] = test system: solgum; experiment: Soil treatment test for upland field; format: in vivo; details: 500 g/ha, glass house 25° C., 3 weeks
Excerpt: as §1, §2, §3, §4

[4] = test system: soybean; experiment: Soil treatment test for upland field; format: in vivo; details: 500 g/ha, glass house 25° C., 3 weeks
Excerpt: as §1, §2, §3, §4

[5] = test system: sugar beat; experiment: Soil treatment test for upland field; format: in vivo; details: 500 g/ha, glass house 25° C., 3 weeks
Excerpt: as §1, §2, §3, §4

[6] = test system: wheat; experiment: Soil treatment test for upland field; format: in vivo; details: 500 g/ha, glass house 25° C., 3 weeks
Excerpt: as §1, §2, §3, §4

[7] = test system: Large crabgrass; experiment: Soil treatment test for upland field; format: in vivo, Digitaria adscendens; details: 500 g/ha, glass house 25° C., 3 weeks
Excerpt: as §1, §2, §3, §4

[8] = test system: green foxtail; experiment: Soil treatment test for upland field; format: in vivo, Setaria viridis; details: 500 g/ha, glass house 25° C., 3 weeks
Excerpt: as §1, §2, §3, §4

[9] = test system: annual bluegrass; experiment: Soil treatment test for upland field; format: in vivo, Poa annua; details: 500 g/ha, glass house 25° C., 3 weeks
Excerpt: as §1, §2, §3, §4

[10] = test system: common lambsquartes; experiment: Soil treatment test for upland field; format: in vivo, Chenopodium album; details: 500 g/ha, glass house 25° C., 3 weeks
Excerpt: as §1, §2, §3, §4

[11] = test system: livid amaranth; experiment: Soil treatment test for upland field; format: in vivo, Amaranthus lividus; details: 500 g/ha, glass house 25° C., 3 weeks
Excerpt: as §1, §2, §3, §4

[12] = test system: velvetleaf; experiment: Soil treatment test for upland field; format: in vivo, Abutilon theophrasti; details: 500 g/ha, glass house 25° C., 3 weeks
Excerpt: as §1, §2, §3, §4

[13] = test system: corn; experiment: Foliar spread test for upland field; format: in vivo; details: foliar spray 500 ppm, 3 weeks, rank vs non-treated
Excerpt: as §1
(§5) Wagner pots, each having an area of 1/5000 are, were packed with volcanic ash soil and then each seed of corn, soybean, cotton, wheat, solgum, sugar beat, Large crabgrass, barnyardgrass, green foxtail, blackgrass, annual bluegrass, common lambsquartes, livid amaranth, velvetleaf and morning glory was planted, covered with soil and grown in a glass house at an average temperature of […] for about 2 weeks.
(§6) Each wettable powder of the desired compounds (I) shown in Table 1 prepared in accordance with Example 2 was diluted to 500 ppm with water containing a surfactant (0.5%) and then uniformly sprayed on the above respective plants.
(§7) After these plants were controlled in a glass house at an average temperature of 25° C. for 3 weeks, the herbicidal effects thereof were investigated.
as §4

[14] = test system: solgum; experiment: Foliar spread test for upland field; format: in vivo; details: foliar spray 500 ppm, 3 weeks, rank vs non-treated
Excerpt: as §1, §5, §6, §7, §4

[15] = test system: sugar beat; experiment: Foliar spread test for upland field; format: in vivo; details: foliar spray 500 ppm, 3 weeks, rank vs non-treated
Excerpt: as §1, §5, §6, §7, §4

[16] = test system: wheat; experiment: Foliar spread test for upland field; format: in vivo; details: foliar spray 500 ppm, 3 weeks, rank vs non-treated
Excerpt: as §1, §5, §6, §7, §4

[17] = test system: common lambsquartes; experiment: Foliar spread test for upland field; format: in vivo, Chenopodium album; details: foliar spray 500 ppm, 3 weeks, rank vs non-treated
Excerpt: as §1, §5, §6, §7, §4

[18] = test system: livid amaranth; experiment: Foliar spread test for upland field; format: in vivo, Amaranthus lividus; details: foliar spray 500 ppm, 3 weeks, rank vs non-treated
Excerpt: as §1, §5, §6, §7, §4

[19] = test system: velvetleaf; experiment: Foliar spread test for upland field; format: in vivo, Abutilon theophrasti; details: foliar spray 500 ppm, 3 weeks, rank vs non-treated
Excerpt: as §1, §5, §6, §7, §4

[20] = test system: young rice plant; experiment: Herbicidal test for paddy field; format: in vivo; details: paddy field pot, 500 g/ha dropwise at 1.5 leaf stage of barnyardgrass, 3 weeks, rank vs non-treated
Protocol: (§8) Wagner pots, each having an area of 1/5000 are, were packed with Ube soil (alluvial soil) and planted with seeds or tubers of young rice plant, barnyardgrass, bulrush, flat sedge and monochoria. Then, the pots were filled with water to a depth of 3 cm.
(§9) Each wettable powder of the desired compounds (I) shown in Table 1 prepared in accordance with Example 2 was diluted with water containing a surfactant (0.05%) and subjected to dropwise addition treatment by using pipet so that an effective concentration of the compound (I) in each herbicide became 500 g/ha at 1.5 leaf stage of barnyardgrass.
(§10) These plants were controlled in a glass house at an average temperature of 25° C. for 3 weeks, and then herbicidal effects thereof were investigated.
(§11) The herbicidal effects are evaluated according to the following 6 ranks as compared with non-treated district.
as §1

[21] = test system: barnyardgrass; experiment: Herbicidal test for paddy field; format: in vivo, Echinochloa crusgalli; details: paddy field pot, 500 g/ha dropwise at 1.5 leaf stage of barnyardgrass, 3 weeks, rank vs non-treated
Protocol: as §8, §9, §10, §11, §1

[22] = test system: bulrush; experiment: Herbicidal test for paddy field; format: in vivo, Scrips juncoides; details: paddy field pot, 500 g/ha dropwise at 1.5 leaf stage of barnyardgrass, 3 weeks, rank vs non-treated
Protocol: as §8, §9, §10, §11, §1

[23] = test system: monochoria; experiment: Herbicidal test for paddy field; format: in vivo, Monochoria vaginalis; details: paddy field pot, 500 g/ha dropwise at 1.5 leaf stage of barnyardgrass, 3 weeks, rank vs non-treated
Protocol: as §8, §9, §10, §11, §1

[24] = test system: barnyardgrass; experiment: Soil treatment test for upland field; format: in vivo, Echinochloa crusgalli; details: 500 g/ha, glass house 25° C., 3 weeks
Excerpt: as §1, §2, §3, §4

[25] = test system: blackgrass; experiment: Soil treatment test for upland field; format: in vivo, Alopecurus aegualis; details: 500 g/ha, glass house 25° C., 3 weeks
Excerpt: as §1, §2, §3, §4

| SMILES | Effects Corn [1] | Effects Cotton [2] | Effects Solgum [3] | Effects Soybean [4] | Effects Sugar beat [5] | Effects Wheat [6] | Effects Large crabgrass [7] | Effects Green foxtail [8] | Effects Annual bluegrass [9] | Effects Common lambsquarters [10] | Effects Livid amaranth [11] | Effects Velvetleaf [12] | Effects Corn [13] | Effects Solgum [14] | Effects Sugar beat [15] | Effects Wheat [16] | Effect Young rice plant [20] | Effect Barnyardgrass [21] | Effect Bulrush [22] | Effect Monochoria [23] | other results |
| --- | --- | --- | --- | --- | --- | --- | --- | --- | --- | --- | --- | --- | --- | --- | --- | --- | --- | --- | --- | --- | --- |
| CCCCC(Oc1ccc(F)c(C(F)(F)F)c1)c1nc2cc(Cl)ccc2o1 (stereo not shown) [Compound 476] | 0 | 0 | 0 | 0 | 3 | 0 | 3 | 4 | 4 | 3 | 5 | 2 | 1 | 0 | 5 | 1 | – | – | – | – | Effects Common lambsquarters [17]: 5; Effects Livid amaranth [18]: 5; Effects Velvetleaf [19]: 2 |
| CCC(Oc1ccc(F)c(C(F)(F)F)c1)c1nc2ccc(Cl)cc2o1 (stereo not shown) [Compound 9] | 0 | 0 | 0 | 0 | 2 | 0 | 5 | 5 | 4 | 3 | 5 | – | – | – | – | – | 0 | 3 | 3 | 4 | Effects Barnyardgrass [24]: 4; Effects Blackgrass [25]: 3 |
| CCCC(Oc1ccc(F)c(C(F)(F)F)c1)c1nc2cc(S(C)(=O)=O)ccc2o1 (stereo not shown) [Compound 217] | 0 | 1 | 0 | 0 | 5 | 0 | 5 | 5 | 4 | 5 | 5 | 5 | – | – | – | – | 1 | – | 2 | 4 | Effects Blackgrass [25]: 2 |
| CCC(Oc1cccc(C#N)c1)c1nc2cc(Cl)ccc2o1 (stereo not shown) [Compound 353] | – | – | – | – | – | – | – | – | – | – | – | – | – | – | – | – | 0 | 3 | 4 | 5 | – |
| CCCC(Oc1cccc(C(F)(F)F)c1)c1nc2cc(S(C)(=O)=O)c(C)cc2o1 (stereo not shown) [Compound 489] | 1 | 0 | 0 | 0 | 5 | 0 | 2 | 4 | 5 | 4 | 5 | 3 | 1 | 1 | 5 | 1 | – | – | – | – | Effects Common lambsquarters [17]: 5; Effects Livid amaranth [18]: 5; Effects Velvetleaf [19]: 3 |
| CCC(Oc1ccc(F)c(C(F)(F)F)c1)c1nc2ccc(F)cc2o1 (stereo not shown) [Compound 27] | 0 | 0 | 0 | 0 | 1 | 0 | 4 | 4 | 3 | 3 | 5 | 1 | – | – | – | – | 0 | 1 | 4 | 5 | Effects Barnyardgrass [24]: 1 |
| CCC(Oc1cccc(C(F)(F)F)c1)c1nc2cc(S(C)(=O)=O)c(C)cc2o1 (stereo not shown) [Compound 490] | – | – | – | – | – | – | – | – | – | – | – | – | 1 | 1 | 4 | 1 | – | – | – | – | Effects Common lambsquarters [17]: 5; Effects Livid amaranth [18]: 4; Effects Velvetleaf [19]: 4 |
| CCCC(Oc1cccc(C#N)c1)c1nc2cc(F)c(Cl)cc2o1 (stereo not shown) [Compound 501] | – | – | – | – | – | – | – | – | – | – | – | – | – | – | – | – | 1 | 3 | – | 3 | – |
| CCC(Oc1ccc(F)c(C(F)(F)F)c1)c1nc2cc(C#N)c(Cl)cc2o1 (stereo not shown) [Compound 517] | 0 | 0 | 0 | 0 | 5 | 0 | 3 | 4 | – | 3 | 5 | 3 | – | – | – | – | 2 | 3 | 3 | 3 | Effects Barnyardgrass [24]: 3 |
